This is an account of results in PMC8263017, “Cryo-EM Determination of Eravacycline-Bound Structures of the Ribosome and the Multidrug Efflux Pump AdeJ of Acinetobacter baumannii” (mBio, 2021).

Assay [1] addresses T1, AdeJ multidrug efflux pump (Acinetobacter baumannii, UniProt Q2FD94).
T1 construct: full-length, 1,058 residues (1,046 built per protomer); N-terminal 6xHis tag (pET15b); expressed in E. coli BL21(DE3) delta-acrB; DDM-purified, reconstituted in MSP 1E3D1 lipidic nanodiscs; homotrimer
As to the kind of experiment: single-particle cryo-EM structure ([…] A). The note with it: 10 uM AdeJ-nanodisc with 20 uM eravacycline (dihydrochloride), 1 h; distal drug-binding site of the binding-state protomer, one molecule per trimer; no Mg2+ seen at the site.

The target in assay [2] is Acinetobacter drug efflux (Ade)J multidrug efflux pump of A. baumannii Ab0057 (Acinetobacter baumannii Ab0057) (UniProt Q2FD94). Description: cryo-EM structure; single-particle cryo-EM of 10 μM AdeJ in lipidic nanodiscs, incubated with 20 μM eravacycline for 1 h; two classes in one sample (apo-AdeJ trimer and AdeJ-Era trimer); 20 mM Tris-HCl pH 7.5, 100 mM NaCl.

A word on the stoichiometry N: it is a count of units in the complex or per binding partner.

Turning to `CN(C)[C@@H]1C(=O)C(C(N)=O)=C(O)[C@@]2(O)C(=O)C3=C(O)c4c(O)c(NC(=O)CN5CCCC5)cc(F)c4C[C@H]3C[C@@H]12` [eravacycline], the “single-particle cryo-EM structure (2.86 A)” value in assay [1] is “large density corresponds to the bound Era drug located at the distal multidrug-binding site”.
Consider “Acinetobacter drug efflux (Ade)J multidrug efflux pump of A. baumannii Ab0057 (from UniProt Q2FD94 1-1058) (natural protein)”, for which the stoichiometry N in assay [2] came to 3.
